Laboratory results as given in PMC6499206, “Quantification of Volatile Metabolites Derived From Garlic (Allium sativum) in Human Urine” (Frontiers in Nutrition, 2019).

Experiment: Quantification of garlic-derived metabolites in human urine after ingestion of 3 g raw garlic (SIDA, SAFE, HRGC-MS / HRGC-GC-MS)
Format: in vivo
Design: metabolite in urine related to creatinine: unit not given here
Details: for metabolite concentration in urine, creatinine-normalized / metabolite concentration in urine / time of highest concentration in urine after garlic consumption / highest detected concentration of the sample series: 3 g raw garlic; for highest detected concentration of the sample series: same bulb
Procedure, shortened: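 Quantification used stable isotope dilution (²H3-AMS, -AMSO, -AMSO2 standards), SAFE distillation at 50°C of DCM-treated urine, and GC-MS on a DB-FFAP column, with creatinine from the Jaffé reaction at 492 nm. Urine came from 18 volunteers avoiding sulfur-rich foods, sampled before and up to 24 h after eating 3 g raw garlic.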

In the case of `C=CCSC` [AMS, allyl methyl sulfide], the “metabolite concentration in urine, creatinine-normalized” value (U VII, 1 h post (1.08 h)) is reported as 0.8 µg/mmol creatinine, the “metabolite concentration in urine” value (U VII, 2 h post (2.00 h)) is reported as 0.8 µg/kg and the “metabolite concentration in urine, creatinine-normalized” value (U VII, 2 h post (2.00 h)) is reported as 0.8 µg/mmol creatinine. For the same molecule, the “metabolite concentration in urine” value (U VII, 4 h post (4.00 h)) was 0.6 µg/kg, the “metabolite concentration in urine, creatinine-normalized” value (U VII, 4 h post (4.00 h)) was 0.3 µg/mmol creatinine and the “metabolite concentration in urine” value (U VII, 6 h post (6.00 h)) was 0.7 µg/kg. For the same molecule, the “metabolite concentration in urine, creatinine-normalized” value (U VII, 6 h post (6.00 h)) was 0.2 µg/mmol creatinine, the “metabolite concentration in urine” value (U VII, 8 h post (8.00 h)) was 0.4 µg/kg and the “metabolite concentration in urine, creatinine-normalized” value (U VII, 8 h post (8.00 h)) was 0.2 µg/mmol creatinine. For the same molecule, the “metabolite concentration in urine” value (U VII, 24 h post (24.00 h)) was “traces^1”, the “metabolite concentration in urine, creatinine-normalized” value (U VII, 24 h post (24.00 h)) was “traces^1” and the “metabolite concentration in urine” value (U VII, pre (-0.25 h)) was “traces^1”. The “metabolite concentration in urine, creatinine-normalized” value (U VII, pre (-0.25 h)) was “traces^1”, the “metabolite concentration in urine” value (U VIII, 0.5 h post (0.52 h)) was 1.9 µg/kg and the “metabolite concentration in urine, creatinine-normalized” value (U VIII, 0.5 h post (0.52 h)) was 2.3 µg/mmol creatinine. The “metabolite concentration in urine” value (U VIII, 1 h post (1.08 h)) was 1.9 µg/kg, the “metabolite concentration in urine, creatinine-normalized” value (U VIII, 1 h post (1.08 h)) was 1.1 µg/mmol creatinine and the “metabolite concentration in urine” value (U VIII, 2 h post (2.08 h)) was 1.5 µg/kg. For the same molecule, the “metabolite concentration in urine, creatinine-normalized” value (U VIII, 2 h post (2.08 h)) was 1.4 µg/mmol creatinine, the “metabolite concentration in urine” value (U VIII, 4 h post (4.07 h)) was 1.6 µg/kg and the “metabolite concentration in urine, creatinine-normalized” value (U VIII, 4 h post (4.07 h)) was 0.7 µg/mmol creatinine. For the same molecule, the “metabolite concentration in urine” value (U VIII, 6 h post (6.08 h)) was 1.3 µg/kg, the “metabolite concentration in urine, creatinine-normalized” value (U VIII, 6 h post (6.08 h)) was 0.3 µg/mmol creatinine and the “metabolite concentration in urine” value (U VIII, 8 h post (7.90 h)) was 0.8 µg/kg. For the same molecule, the “metabolite concentration in urine, creatinine-normalized” value (U VIII, 8 h post (7.90 h)) was 0.3 µg/mmol creatinine, the “metabolite concentration in urine” value (U VIII, 24 h post (23.83 h)) was 0.3 µg/kg and the “metabolite concentration in urine, creatinine-normalized” value (U VIII, 24 h post (23.83 h)) was 0.1 µg/mmol creatinine. For the same molecule, the “metabolite concentration in urine” value (U VIII, pre (-0.33 h)) was 0.5 µg/kg, the “metabolite concentration in urine, creatinine-normalized” value (U VIII, pre (-0.33 h)) was 0.1 µg/mmol creatinine and the “metabolite concentration in urine” value (U X, 0.5 h post (0.53 h)) was 0.4 µg/kg. For the same molecule, the “metabolite concentration in urine, creatinine-normalized” value (U X, 0.5 h post (0.53 h)) was 0.2 µg/mmol creatinine, the “metabolite concentration in urine” value (U X, 1 h post (1.03 h)) was 0.4 µg/kg and the “metabolite concentration in urine, creatinine-normalized” value (U X, 1 h post (1.03 h)) was 0.5 µg/mmol creatinine. The “metabolite concentration in urine” value (U X, 2 h post (2.03 h)) was 0.3 µg/kg, the “metabolite concentration in urine, creatinine-normalized” value (U X, 2 h post (2.03 h)) was 0.5 µg/mmol creatinine and the “metabolite concentration in urine” value (U X, 4 h post (3.85 h)) was 0.4 µg/kg. For the same molecule, the “metabolite concentration in urine, creatinine-normalized” value (U X, 4 h post (3.85 h)) was 0.3 µg/mmol creatinine, the “metabolite concentration in urine” value (U X, 6 h post (5.80 h)) was 0.5 µg/kg and the “metabolite concentration in urine, creatinine-normalized” value (U X, 6 h post (5.80 h)) was 0.2 µg/mmol creatinine. For the same molecule, the “metabolite concentration in urine” value (U X, 8 h post (7.75 h)) was 0.3 µg/kg, the “metabolite concentration in urine, creatinine-normalized” value (U X, 8 h post (7.75 h)) was 0.1 µg/mmol creatinine and the “metabolite concentration in urine” value (U X, 24 h post (23.97 h)) was 0.2 µg/kg. The “metabolite concentration in urine, creatinine-normalized” value (U X, 24 h post (23.97 h)) was 0.02 µg/mmol creatinine, the “metabolite concentration in urine” value (U X, pre (-0.07 h)) was “< LOD^1” and the “metabolite concentration in urine, creatinine-normalized” value (U X, pre (-0.07 h)) was “< LOD^1”. The “metabolite concentration in urine” value (U XI, 0.5 h post (0.50 h)) was 0.4 µg/kg, the “metabolite concentration in urine, creatinine-normalized” value (U XI, 0.5 h post (0.50 h)) was 0.4 µg/mmol creatinine and the “metabolite concentration in urine” value (U XI, 1 h post (1.02 h)) was 0.6 µg/kg. The “metabolite concentration in urine, creatinine-normalized” value (U XI, 1 h post (1.02 h)) was 0.7 µg/mmol creatinine, the “metabolite concentration in urine” value (U XI, 2 h post (2.00 h)) was 0.5 µg/kg and the “metabolite concentration in urine, creatinine-normalized” value (U XI, 2 h post (2.00 h)) was 0.7 µg/mmol creatinine. The “metabolite concentration in urine” value (U XI, pre (-0.08 h)) was 0.8 µg/kg, the “metabolite concentration in urine, creatinine-normalized” value (U XI, pre (-0.08 h)) was 0.2 µg/mmol creatinine and the “metabolite concentration in urine” value (U XII, 0.5 h post (0.48 h)) was 0.3 µg/kg. The “metabolite concentration in urine, creatinine-normalized” value (U XII, 0.5 h post (0.48 h)) was 0.04 µg/mmol creatinine, the “metabolite concentration in urine” value (U XII, 1 h post (1.03 h)) was 0.3 µg/kg and the “metabolite concentration in urine, creatinine-normalized” value (U XII, 1 h post (1.03 h)) was 0.3 µg/mmol creatinine. The “metabolite concentration in urine” value (U XII, 2 h post (1.85 h)) was 0.9 µg/kg, the “metabolite concentration in urine, creatinine-normalized” value (U XII, 2 h post (1.85 h)) was 1.3 µg/mmol creatinine and the “metabolite concentration in urine” value (U XII, 4 h post (3.80 h)) was 0.5 µg/kg. For the same molecule, the “metabolite concentration in urine, creatinine-normalized” value (U XII, 4 h post (3.80 h)) was 0.2 µg/mmol creatinine, the “metabolite concentration in urine” value (U XII, 6 h post (5.82 h)) was 0.4 µg/kg and the “metabolite concentration in urine, creatinine-normalized” value (U XII, 6 h post (5.82 h)) was 0.1 µg/mmol creatinine. The “metabolite concentration in urine” value (U XII, 8 h post (7.82 h)) was 0.3 µg/kg, the “metabolite concentration in urine, creatinine-normalized” value (U XII, 8 h post (7.82 h)) was 0.1 µg/mmol creatinine and the “metabolite concentration in urine” value (U XII, 24 h post (23.92 h)) was “traces^1”. The “metabolite concentration in urine, creatinine-normalized” value (U XII, 24 h post (23.92 h)) was “traces^1”, the “metabolite concentration in urine” value (U XII, pre (-0.08 h)) was “traces^1” and the “metabolite concentration in urine, creatinine-normalized” value (U XII, pre (-0.08 h)) was “traces^1”. For the same molecule, the “metabolite concentration in urine” value (U XIII, 0.5 h post (0.42 h)) was 0.2 µg/kg, the “metabolite concentration in urine, creatinine-normalized” value (U XIII, 0.5 h post (0.42 h)) was 0.1 µg/mmol creatinine and the “metabolite concentration in urine” value (U XIII, 1 h post (0.92 h)) was 0.9 µg/kg. The “metabolite concentration in urine, creatinine-normalized” value (U XIII, 1 h post (0.92 h)) was 0.3 µg/mmol creatinine, the “metabolite concentration in urine” value (U XIII, 2 h post (1.92 h)) was 1.0 µg/kg and the “metabolite concentration in urine, creatinine-normalized” value (U XIII, 2 h post (1.92 h)) was 0.3 µg/mmol creatinine. The “metabolite concentration in urine” value (U XIII, 4 h post (3.92 h)) was 0.8 µg/kg, the “metabolite concentration in urine, creatinine-normalized” value (U XIII, 4 h post (3.92 h)) was 0.2 µg/mmol creatinine and the “metabolite concentration in urine” value (U XIII, 6 h post (5.92 h)) was 0.4 µg/kg. For the same molecule, the “metabolite concentration in urine, creatinine-normalized” value (U XIII, 6 h post (5.92 h)) was 0.04 µg/mmol creatinine, the “metabolite concentration in urine” value (U XIII, 8 h post (7.92 h)) was 0.3 µg/kg and the “metabolite concentration in urine, creatinine-normalized” value (U XIII, 8 h post (7.92 h)) was 0.03 µg/mmol creatinine. The “metabolite concentration in urine” value (U XIII, 24 h post (23.92 h)) was “traces^1”, the “metabolite concentration in urine, creatinine-normalized” value (U XIII, 24 h post (23.92 h)) was “traces^1” and the “metabolite concentration in urine” value (U XIII, pre (-0.08 h)) was “< LOD^1”. The “metabolite concentration in urine, creatinine-normalized” value (U XIII, pre (-0.08 h)) was “< LOD^1”, the “amounts detected in samples collected prior to garlic intervention” value (Urine III, VII, VIII, XI, XII, XVI, XVII, pre-ingestion samples) was no more than 0.2 μg/mmol creatinine and the “time of highest concentration in urine after garlic consumption” value (Urine VIII) was 0.5 h. The “variation factor of the concentration maxima between test persons” value (Urine XIII-XVI, highest vs lowest maximum) was “up to 3.2”, the “highest detected concentration of the sample series” value (“highest detected concentration” for short) (Urine XIII) was 0.3 μg/mmol creatinine and the “highest detected concentration” value (Urine XIV (AMS: printed Urine UIV)) was 0.4 μg/mmol creatinine. The “highest detected concentration” value (Urine XV) was 1.0 μg/mmol creatinine, the “time of highest concentration in urine after garlic consumption” value (Urine XVI) was 4 h and the “highest detected concentration” value (Urine XVI) was 0.3 μg/mmol creatinine. The “metabolite in urine related to creatinine” value (shortened to “metabolite in urine related”) (urine set U XIX, 0.5 h post (0.50 h), garlic 3.1133 g) was 0.1, the “metabolite in urine related” value (urine set U XIX, 1 h post (1.00 h), garlic 3.1133 g) was 1.5 and the “metabolite in urine related” value (urine set U XIX, 2 h post (2.00 h), garlic 3.1133 g) was 0.4. The “metabolite in urine related” value (urine set U XIX, 4 h post (4.00 h), garlic 3.1133 g) was 0.2, the “metabolite in urine related” value (urine set U XIX, 6 h post (6.20 h), garlic 3.1133 g) was 0.1 and the “metabolite in urine related” value (urine set U XIX, 8 h post (7.93 h), garlic 3.1133 g) was 0.1. The “metabolite in urine related” value (urine set U XIX, 24 h post (23.98 h), garlic 3.1133 g) was 0.02, the “metabolite in urine related” value (urine set U XIX, pre (-0.07 h), garlic 3.1133 g) was “< LOD^1” and the “metabolite in urine related” value (urine set U XVII, 0.5 h post (0.58 h), garlic 3.1559 g) was 0.01. For the same molecule, the “metabolite in urine related” value (urine set U XVII, 1 h post (1.00 h), garlic 3.1559 g) was 0.1, the “metabolite in urine related” value (urine set U XVII, 2 h post (2.17 h), garlic 3.1559 g) was 0.3 and the “metabolite in urine related” value (urine set U XVII, 4 h post (4.00 h), garlic 3.1559 g) was 0.2. The “metabolite in urine related” value (urine set U XVII, 6 h post (6.08 h), garlic 3.1559 g) was 0.02, the “metabolite in urine related” value (urine set U XVII, 8 h post (8.00 h), garlic 3.1559 g) was 0.02 and the “metabolite in urine related” value (urine set U XVII, 24 h post (23.92 h), garlic 3.1559 g) was “traces^1”. The “metabolite in urine related” value (urine set U XVII, pre (-0.08 h), garlic 3.1559 g) was “traces^1”, the “metabolite in urine related” value (urine set U XVIII, 0.5 h post (0.63 h), garlic 3.1981 g) was 0.2 and the “metabolite in urine related” value (urine set U XVIII, 1 h post (1.05 h), garlic 3.1981 g) was 0.3. The “metabolite in urine related” value (urine set U XVIII, 2 h post (2.00 h), garlic 3.1981 g) was 0.6, the “metabolite in urine related” value (urine set U XVIII, 4 h post (3.97 h), garlic 3.1981 g) was 0.4 and the “metabolite in urine related” value (urine set U XVIII, 6 h post (5.97 h), garlic 3.1981 g) was 0.1. The “metabolite in urine related” value (urine set U XVIII, 8 h post (8.30 h), garlic 3.1981 g) was 0.4, the “metabolite in urine related” value (urine set U XVIII, 24 h post (24.13 h), garlic 3.1981 g) was “traces^1” and the “metabolite in urine related” value (urine set U XVIII, pre (-0.08 h), garlic 3.1981 g) was “< LOD^1”.
